Converted amounts (≈) assume the structure as drawn. Like-named read-outs stand apart in the source and are kept apart here.
Legend:
P. mirabilis = assay: Expanded panel broth microdilution MIC; format: cell-based; conditions: Proteus mirabilis, ATCC43071
Burkholderia cepacia = assay: Expanded panel broth microdilution MIC; format: cell-based
E. cloacae = assay: Expanded panel broth microdilution MIC; format: cell-based; conditions: Enterobacter cloacae
Enterococcus faecalis = assay: Expanded panel broth microdilution MIC/MBC; format: cell-based
C. freundii = assay: Expanded panel broth microdilution MIC; format: cell-based; conditions: Citrobacter freundii
[1] = tested on: MRSA ATCC BAA 1556 (USA300) biofilm; assay: MRSA biofilm killing, MBEC assay system, TSB with 1% human plasma
[2] = tested on: Staphylococcus haemolyticus; assay: Expanded panel broth microdilution MIC; format: cell-based
S. marcescens = assay: Expanded panel broth microdilution MIC; format: cell-based; conditions: Serratia marcescens, ATCC43862
[3] = tested on: MRSA ATCC BAA 1556 (USA300) biofilm; assay: Static MRSA biofilm killing, plastic microtiter plate, MEM
H. parainfluenzae = assay: Expanded panel broth microdilution MIC; format: cell-based; conditions: Haemophilus parainfluenzae
Streptococcus agalactiae = assay: Expanded panel broth microdilution MIC/MBC; format: cell-based
K. pneumoniae = assay: Expanded panel broth microdilution MIC; format: cell-based
Haemophilus influenzae = assay: Expanded panel broth microdilution MIC; format: cell-based
Acinetobacter baumannii = assay: Expanded panel broth microdilution MIC; format: cell-based
Cutibacterium acnes = assay: Expanded panel broth microdilution MIC; format: cell-based
[4] = tested on: Peptostreptococcus anaerobius; assay: Expanded panel broth microdilution MIC; format: cell-based
Moraxella catarrhalis = assay: Expanded panel broth microdilution MIC; format: cell-based
[5] = tested on: Staphylococcus lugdunensis; assay: Expanded panel broth microdilution MIC; format: cell-based
[6] = Single-dose nebulized nose-only inhalation PK in healthy rats; format: in vivo, rat; conditions: single nebulized nose-only inhaled dose, healthy rats
In short: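 Ten or eleven rats per cohort dosed once by nebulized nose-only inhalation, delivered dose estimated from 5 min aerosol filter sampling. Lungs and plasma collected from immediately postdose (~30 min) to 168 h; drug quantified by LC-MS/MS after protein precipitation. PK by noncompartmental analysis, linear up/log down.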

Pseudomonas aeruginosa = assay: Expanded panel broth microdilution MIC; format: cell-based
E. coli = assay: Expanded panel broth microdilution MIC; format: cell-based; conditions: Escherichia coli
Streptococcus pyogenes = assay: Expanded panel broth microdilution MIC/MBC; format: cell-based
P. vulgaris = assay: Expanded panel broth microdilution MIC; format: cell-based; conditions: Proteus vulgaris
Enterococcus faecium = assay: Expanded panel broth microdilution MIC/MBC; format: cell-based; conditions: for MIC: Enterococcus faecium
Eggerthella lenta = assay: Expanded panel broth microdilution MIC; format: cell-based

What does the source list for `CN[C@H](CC(C)C)C(=O)N[C@H]1C(=O)N[C@@H](CC(N)=O)C(=O)N[C@H]2C(=O)N[C@H]3C(=O)N[C@H](C(=O)N[C@H](C(=O)O)c4cc(O)cc(O)c4-c4cc3ccc4O)[C@H](O)c3ccc(c(Cl)c3)Oc3cc2cc(c3O[C@@H]2O[C@H](CO)[C@@H](O)[C@H](O)[C@H]2O[C@H]2C[C@](C)(N)[C@H](O)[C@H](C)O2)Oc2ccc(cc2Cl)[C@H]1O` [Vancomycin, vancomycin]?
MIC (P. mirabilis): > 64 µg/mL; MIC (Burkholderia cepacia): > 64 µg/mL; MIC (E. cloacae; ATCC49141): > 64 µg/mL; MIC (E. cloacae; ATCCBAA1143): > 64 µg/mL; MIC:MBC (Enterococcus faecalis; E. faecalis VSE, MBC on one organism): >8; MIC (Enterococcus faecalis; E. faecalis VanA VRE, 1 isolate): 128 µg/mL (≈ 88.3 µM); MIC (Enterococcus faecalis; Enterococcus faecalis): 1 µg/mL (≈ 0.69 µM); MIC (Enterococcus faecalis; Enterococcus faecalis, ATCC29212): 2 µg/mL (≈ 1.38 µM); MIC (Enterococcus faecalis; Enterococcus faecalis, VRE): 128 µg/mL (≈ 88.3 µM); MIC (Enterococcus faecalis; Enterococcus faecalis, read-out: MIC (median)): 1.5 µg/mL (≈ 1.04 µM); MIC (C. freundii): > 64 µg/mL; Maximum reduction in MRSA biofilm titer relative to control ([1]; MBEC, 512 μg/ml): 1.1 log10 CFU/peg; Concentrations with statistically significant reduction versus control biofilm ([1]; MBEC, two-way ANOVA, Bonferroni): ≥ 16 µg/mL; Reduction in MRSA biofilm titer ([1]; plasma-supplemented MBEC assay, dose not stated): ~1 log10 CFU/peg; MIC [2]: 1 µg/mL (≈ 0.69 µM); MIC ([2]; ATCC29970): 1 µg/mL (≈ 0.69 µM); MIC (S. marcescens): > 64 µg/mL; Reduction in MRSA biofilm titer ([3]; >20 μg/ml dose): 3 log10 CFU/ml; Reduction in MRSA biofilm titer versus control ([3]; doses 1 to 10 μg/ml): approximately 2 log10 CFU/ml; Concentrations with statistically significant reduction versus control biofilm ([3]; two-way ANOVA, Bonferroni): ≥ 22 µg/mL; MIC (H. parainfluenzae): 64 µg/mL (≈ 44.2 µM); MIC (Streptococcus agalactiae; S. agalactiae MMX 4115, ermR): 0.25 µg/mL (≈ 0.173 µM); MIC (Streptococcus agalactiae; S. agalactiae ermR, 1 isolate): 0.25 µg/mL (≈ 0.173 µM); MIC:MBC (Streptococcus agalactiae; S. agalactiae, MBC on one organism): 4; MIC (Streptococcus agalactiae; Streptococcus agalactiae): 0.25 µg/mL (≈ 0.173 µM); MIC (Streptococcus agalactiae; Streptococcus agalactiae, ATCC13813): 0.25 µg/mL (≈ 0.173 µM); MIC (Streptococcus agalactiae; Streptococcus agalactiae, read-out: MIC (median)): 0.25 µg/mL (≈ 0.173 µM); MIC (K. pneumoniae; K. pneumoniae MMX 4679, KPC-2): > 64 µg/mL; MIC (K. pneumoniae; Klebsiella pneumoniae): > 64 µg/mL; MIC (Haemophilus influenzae): 64 µg/mL (≈ 44.2 µM); MIC (Haemophilus influenzae; ATCC49247): > 64 µg/mL; MIC (Acinetobacter baumannii; A. baumannii MMX 6974, colistinR): > 64 µg/mL; MIC (Acinetobacter baumannii; Acinetobacter baumannii): > 64 µg/mL; MIC (Acinetobacter baumannii; Acinetobacter baumannii, NCTC13304): > 64 µg/mL; MIC (Cutibacterium acnes; ATCC6919): 0.25 µg/mL (≈ 0.173 µM); MIC (Cutibacterium acnes; ATCC11827): 0.12 µg/mL (≈ 0.0828 µM); MIC (Cutibacterium acnes; read-out: MIC (median)): 0.19 µg/mL (≈ 0.131 µM); MIC [4]: 0.12 µg/mL (≈ 0.0828 µM); MIC ([4]; ATCC27337): 0.12 µg/mL (≈ 0.0828 µM); MIC (Moraxella catarrhalis): 16 µg/mL (≈ 11 µM); MIC (Moraxella catarrhalis; ATCC8176): 32 µg/mL (≈ 22.1 µM); MIC (Moraxella catarrhalis; ATCC8193): 64 µg/mL (≈ 44.2 µM); MIC ([5]; S. lugdunensis, 1 isolate): 0.25 µg/mL (≈ 0.173 µM); MIC ([5]; Staphylococcus lugdunensis): 0.25 µg/mL (≈ 0.173 µM); half-life ([6]; male, Sprague Dawley, rat, in vivo, inhaled or intranasal, noncompartmental analysis, read-out: Lung t1/2 (converted)): 23 h; Kp ([6]; male, Sprague Dawley, rat, in vivo, inhaled or intranasal, read-out: Lung: Plasma Cmax ratio): 4; Cmax ([6]; male, Sprague Dawley, rat, in vivo, inhaled or intranasal, read-out: Plasma Cmax): 8000 ng/mL; Pulmonary dose ([6]; measured directly in lung tissue): 0.20 mg/kg; Lung AUC0-∞ [6]: 671 µg·h/g; Lung Cmax [6]: 31 µg/g; MIC (Pseudomonas aeruginosa): > 64 µg/mL; MIC (Pseudomonas aeruginosa; ATCC27853): > 64 µg/mL; MIC (E. coli): > 64 µg/mL; MIC (E. coli; ATCC25922): > 64 µg/mL; MIC (Streptococcus pyogenes; S. pyogenes MMX 946, ermR): 0.25 µg/mL (≈ 0.173 µM); MIC:MBC (Streptococcus pyogenes; S. pyogenes ermR): 1; MIC (Streptococcus pyogenes; Streptococcus pyogenes): 0.25 µg/mL (≈ 0.173 µM); MIC (Streptococcus pyogenes; Streptococcus pyogenes, ATCC19615): 0.25 µg/mL (≈ 0.173 µM); MIC (Streptococcus pyogenes; Streptococcus pyogenes, read-out: MIC (median)): 0.25 µg/mL (≈ 0.173 µM); MIC (P. vulgaris): > 64 µg/mL; MIC:MBC (Enterococcus faecium; E. faecium VanB VRE): >2; MIC (Enterococcus faecium; E. faecium MMX 4204, VSE): 0.5 µg/mL (≈ 0.345 µM); MIC (Enterococcus faecium; E. faecium VSE, 1 isolate): 0.5 µg/mL (≈ 0.345 µM); MIC (Enterococcus faecium; VRE, E. faecium MMX 173, VanB VRE): 64 µg/mL (≈ 44.2 µM); MIC (Enterococcus faecium; VRE, E. faecium MMX 851, VanA VRE): 128 µg/mL (≈ 88.3 µM); MIC (Enterococcus faecium; VRE, E. faecium VanA VRE, 1 isolate): 128 µg/mL (≈ 88.3 µM); MIC (Enterococcus faecium; VRE, E. faecium VanB VRE, 1 isolate): 64 µg/mL (≈ 44.2 µM); MIC (Eggerthella lenta): 0.5 µg/mL (≈ 0.345 µM); MIC (Eggerthella lenta; ATCC43055): 0.5 µg/mL (≈ 0.345 µM)

From paper PMC8373216, “Development and Preclinical Evaluation of New Inhaled Lipoglycopeptides for the Treatment of Persistent Pulmonary Methicillin-Resistant Staphylococcus aureus Infections” (Antimicrobial Agents and Chemotherapy, 2021)
